Among the data in US9670212B2, “Inhibitors of PI3K-delta and methods of their use and manufacture” (Exelixis, Inc., priority 2010, dated 2017) are IC50 values, retold here.

Sequence of PI3K delta (O00329 whole entry): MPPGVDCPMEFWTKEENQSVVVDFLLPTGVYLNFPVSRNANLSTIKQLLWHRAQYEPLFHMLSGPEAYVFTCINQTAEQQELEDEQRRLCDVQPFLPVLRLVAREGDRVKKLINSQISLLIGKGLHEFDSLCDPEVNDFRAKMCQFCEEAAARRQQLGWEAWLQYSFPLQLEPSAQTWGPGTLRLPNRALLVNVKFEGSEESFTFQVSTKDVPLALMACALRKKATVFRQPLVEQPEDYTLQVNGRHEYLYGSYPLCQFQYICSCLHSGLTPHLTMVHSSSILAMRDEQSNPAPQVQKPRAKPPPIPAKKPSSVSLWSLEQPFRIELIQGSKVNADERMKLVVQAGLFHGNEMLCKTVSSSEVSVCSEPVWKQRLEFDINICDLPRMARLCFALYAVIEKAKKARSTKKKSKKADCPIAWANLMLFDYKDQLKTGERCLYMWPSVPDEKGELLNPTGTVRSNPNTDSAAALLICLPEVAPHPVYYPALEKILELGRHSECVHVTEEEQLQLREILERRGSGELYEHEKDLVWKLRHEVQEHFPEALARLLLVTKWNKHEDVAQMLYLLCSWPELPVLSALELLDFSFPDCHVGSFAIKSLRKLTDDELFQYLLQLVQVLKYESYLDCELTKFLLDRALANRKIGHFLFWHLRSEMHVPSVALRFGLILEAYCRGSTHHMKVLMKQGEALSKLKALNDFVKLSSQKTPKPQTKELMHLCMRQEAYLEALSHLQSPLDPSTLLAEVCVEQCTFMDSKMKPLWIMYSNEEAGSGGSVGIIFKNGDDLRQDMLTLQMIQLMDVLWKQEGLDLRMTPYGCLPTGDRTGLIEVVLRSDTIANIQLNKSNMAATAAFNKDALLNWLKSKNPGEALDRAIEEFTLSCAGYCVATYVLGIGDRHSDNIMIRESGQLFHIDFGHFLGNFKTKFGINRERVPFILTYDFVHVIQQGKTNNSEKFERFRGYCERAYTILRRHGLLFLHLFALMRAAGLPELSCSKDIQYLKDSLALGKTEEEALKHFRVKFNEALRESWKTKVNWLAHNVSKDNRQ
Sequence of PI3K delta (P27986 whole entry partner): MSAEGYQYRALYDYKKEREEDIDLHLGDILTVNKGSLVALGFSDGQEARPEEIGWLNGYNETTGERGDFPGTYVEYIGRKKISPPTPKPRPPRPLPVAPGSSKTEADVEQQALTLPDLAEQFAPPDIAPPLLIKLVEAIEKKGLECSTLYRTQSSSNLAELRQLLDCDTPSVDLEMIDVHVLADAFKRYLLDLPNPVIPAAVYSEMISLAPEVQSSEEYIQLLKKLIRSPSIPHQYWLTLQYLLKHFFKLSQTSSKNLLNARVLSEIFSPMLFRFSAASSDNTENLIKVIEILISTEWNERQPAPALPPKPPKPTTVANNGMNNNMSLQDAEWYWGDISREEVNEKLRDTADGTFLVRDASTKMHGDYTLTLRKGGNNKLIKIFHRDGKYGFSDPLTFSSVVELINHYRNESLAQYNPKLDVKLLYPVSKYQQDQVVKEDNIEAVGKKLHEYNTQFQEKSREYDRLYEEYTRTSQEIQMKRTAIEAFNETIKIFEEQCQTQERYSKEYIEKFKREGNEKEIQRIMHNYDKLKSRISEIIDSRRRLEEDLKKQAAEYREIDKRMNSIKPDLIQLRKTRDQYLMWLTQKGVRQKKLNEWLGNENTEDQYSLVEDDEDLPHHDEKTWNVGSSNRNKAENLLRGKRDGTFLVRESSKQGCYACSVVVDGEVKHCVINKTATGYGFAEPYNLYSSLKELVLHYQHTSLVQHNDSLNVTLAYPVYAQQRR

The assay deals with PI3K delta (Homo sapiens (Human), UniProt O00329). Nature of the assay: Luciferase-coupled chemiluminescence kinase assay (KinaseGlo, ATP consumption). Format: biochemical. In a few lines:
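Kinase, compound and ATP (at or below KM) reacted 2 h at ambient temperature; remaining ATP detected by KinaseGlo luciferase chemiluminescence as percent ATP consumed. 10-point dose-response, curves fitted to give IC50.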
Background: In Kinase-Glo more light means more ATP remaining.
For the compound `Cc1cccc2cc(Cn3cnc4c(N)ncnc43)c(NC3CCOCC3)nc12` [Compound 165, 3-[(6-amino-9H-purin-9-yl)methyl]-8-methyl-N-(tetrahydro-2H-pyran-4-yl)quinolin-2-amine], the IC50 (commonly the concentration needed to halve the response being measured) fell in the range of 500 to 1500 nM.

With `Cc1cccc2cc(CNC(=O)c3nccnc3N)c(N(C)CCN(C)C(=O)Cn3cnnn3)nc12` [Compound 42, 3-amino-N-{[8-methyl-2-(methyl{2-[methyl(1H-tetrazol-1-ylacetyl)amino]ethyl}amino)quinolin-3-yl]methyl}pyrazine-2-carboxamide], the IC50 was below 50 nM.

`Nc1nccnc1C(=O)NCc1nc2ccccc2cc1-c1ccccc1CN1CCCCC1` [Compound 59, 3-amino-N-({3-[2-(piperidin-1-ylmethyl)phenyl]quinolin-2-yl}methyl)pyrazine-2-carboxamide]: the IC50 lay in the range of 50 to 250 nM.

On to `Cc1ccccc1-n1c(CSc2ncnc3nc[nH]c23)nc2ccsc2c1=O` [Compound 163, 3-(2-methylphenyl)-2-[(7H-purin-6-ylthio)methyl]thieno[3,2-d]pyrimidin-4(3H)-one], for which the IC50 is 500 to 1500 nM.

Consider `Cc1ccccc1-c1cc2ccccc2nc1CNc1ncnc2[nH]cnc12` [Compound 155, N-{[3-(2-methylphenyl)quinolin-2-yl]methyl}-9H-purin-6-amine], for which the IC50 is 50 to 250 nM.

`Cc1cccc2cc(CNC(=O)c3nccnc3N)c(NCc3cccnc3)nc12` [Compound 95, 3-amino-N-({8-methyl-2-[(pyridin-3-ylmethyl)amino]quinolin-3-yl}methyl)pyrazine-2-carboxamide]: the IC50 is 500 to 1500 nM.

`Cc1ccc(CN2CCCN(c3nc4c(C)cccc4cc3CNC(=O)c3nccnc3N)CC2)o1` [Compound 58, 3-amino-N-[(8-methyl-2-{4-[(5-methylfuran-2-yl)methyl]-1,4-diazepan-1-yl}quinolin-3-yl)methyl]pyrazine-2-carboxamide]: the IC50 is 500 to 1500 nM.

Regarding `CC(=O)N1CCN(c2nc3ccccc3nc2Nc2cccc(C(N)=O)c2)CC1` [Compound 41, 3-{[3-(4-acetylpiperazin-1-yl)quinoxalin-2-yl]amino}benzamide], the IC50 is 500 to 1500 nM.

In turn, `Cc1ccccc1-c1cc2ccccc2nc1Cn1nc(I)c2c(N)ncnc21` [Compound 145, 3-iodo-1-{[3-(2-methylphenyl)quinolin-2-yl]methyl}-1H-pyrazolo[3,4-d]pyrimidin-4-amine] registered an IC50 below 50 nM.

With `COCCN(C)c1nc2c(C)cccc2cc1CNc1ncnc2[nH]cnc12` [Compound 25, N,8-dimethyl-N-[2-(methyloxy)ethyl]-3-[(9H-purin-6-ylamino)methyl]quinolin-2-amine], the IC50 is below 50 nM.

Compound `Cc1ccccc1-c1cc2ccccc2nc1CNC(=O)c1ncc(Cl)nc1N` [Compound 107, 3-amino-5-chloro-N-{[3-(2-methylphenyl)quinolin-2-yl]methyl}pyrazine-2-carboxamide] showed an IC50 of 500 to 1500 nM.

With `Cc1cccc2cc(Cn3cnc4c(N)ncnc43)c(N3CCc4ccccc4C3)nc12` [Compound 14, 9-{[2-(3,4-dihydroisoquinolin-2(1H)-yl)-8-methylquinolin-3-yl]methyl}-9H-purin-6-amine], the IC50 lay within 500 to 1500 nM.

As for `Cc1ccccc1-c1cc2ccccc2nc1C(C)NC(=O)c1nccnc1N` (stereo not shown) [Compound 75, 3-amino-N-{1-[3-(2-methylphenyl)quinolin-2-yl]ethyl}pyrazine-2-carboxamide], the IC50 lay in the range of 250 to 500 nM.

Compound `Cc1ccccc1-c1nc2ccccc2cc1Cn1cnc2c(N)ncnc21` [Compound 191, 9-{[2-(2-methylphenyl)quinolin-3-yl]methyl}-9H-purin-6-amine] came in with an IC50 of 500 to 1500 nM.

In turn, `Cc1cccc2cc(CNc3ncnc4[nH]cnc34)c(N(C)CC3CCN(C)CC3)nc12` [Compound 33, N,8-dimethyl-N-[(1-methylpiperidin-4-yl)methyl]-3-[(9H-purin-6-ylamino)methyl]quinolin-2-amine] yielded an IC50 below 50 nM.

`CCCCN(C)c1nc2c(C)cccc2cc1CNc1ncnc2[nH]cnc12` [Compound 26, N-butyl-N,8-dimethyl-3-[(9H-purin-6-ylamino)methyl]quinolin-2-amine] gave an IC50 of 50 to 250 nM.
